Results: patent publication US20090047288A1, “Glucan compositions and methods of enhancing CR3 dependent neutrophil-mediated cytotoxicity” (priority 2006, published 2009)

Assays:
PI 3-kinase = PI 3-kinase activity after dual ligation of CR3 in human neutrophils (ELISA); assay type: cell-based; conditions: dual ligation plus inhibitor: LY294002 50 μM, Piceatannol 25 μM; one hour
Method: Human neutrophils were stimulated with anti-M1/70 mAb (1 μg/ml) followed with goat-anti-rat Ig (5 μg/ml) in the presence or absence of the 25 kD active moiety of β-glucan (10 μg/ml) at 37° C. […] For measurement of PI 3-kinase activity, cells were stimulated for one hour and aliquots of cell lysates adjusted for protein concentration (500 μg of protein) were incubated for two hours at 4° C. with anti-PI 3-kinase p85 antibody, and immune complexes were adsorbed onto protein A-agarose for three hours. The complexes were then washed twice with lysis buffer and three times with 10 mM Tris-HCl, pH 7.4. To ensure that PI 3-kinase levels remained equivalent at the end of the immunoprecipitation, 10% from each treatment sample were collected during the last wash in a separate tube and analyzed by SDS-PAGE and immunoblotting with Abs to the p85 PI 3-kinase subunit. […] In brief, cell lysates were prepared and PI-3K was immunoprecipitated with antibody against the p85 subunit and incubated with PI(4,5)P2 (phosphatidylinositol-4,5-diphosphate). […]
Additionally, human peripheral blood neutrophils were stimulated with M1/70 mAb followed by secondary Ab (with or without 25 kD β-glucan) or 25 kD β-glucan alone for one hour. […] The immunoprecipitates were analyzed on SDS-PAGE gel and blotted with anti-PI 3-kinase p85 mAb. The immunoprecipitates were also measured for PI 3-kinase activity by ELISA. […]

[1] = test system: low-grade or slow-growing NHL; conditions: 166 patients with advanced low-grade or slow-growing NHL, cited from earlier work

| Compound | PI 3-kinase activity (level of PI(3,4,5)P3) (PI 3-kinase) [µM] | patients having complete remission [1] [%] | patients whose tumors shrunk by at least one half ([1]; those who completed treatment) [%] |
| --- | --- | --- | --- |
| O=c1cc(N2CCOCC2)oc2c(-c3ccccc3)cccc12 [LY294002] | 9.05 ± 1.14 | – | – |
| Oc1cc(O)cc(/C=C/c2ccc(O)c(O)c2)c1 [Piceatannol] | 17.1 ± 1.5 | – | – |
| rituximab: monoclonal antibody used to treat non-Hodgkin's lymphoma | – | 6 | 48 |
